Consider two compounds from US11596623B2, “Methods for treating virus infection or proliferation” (HOWARD UNIVERSITY, priority 2018, dated 2023).

One test has as its system RACK1A protein. As to the kind of experiment: RACK1 protein expression under salt stress, western blot. It counts as in vivo. The conditions noted are these: Arabidopsis lysates. From the text:
The abundant leaf protein Rubisco large subunit (RbcL) was used as a loading control for the blot. The 37 kD RACK1 band was absent from the genetic knockout of RACK1 plants (double mutant-rack1ab lane).
The reported positive expression of RACK1A protein under salt stress condition in Arabidopsis has led us to examine the RACK1A expression in the presence and absence of the inhibitor compounds during salt stresses. We determined that the RACK1A protein expression was specifically modulated by the inhibitor compounds when the lysates with salt or without salt in the presence and absence of the small compounds were probed with an antibody raised by using the full length RACK1A protein as antigen (Agrisera, Vännäs, Sweden, FIG. 2C). […] However, whether the effect of SD29-12 is Arabidopsis salt stress specific condition needs further experimental evidence. As the antibody cross-reacts with all three RACK1 isoforms in Arabidopsis, we used the double knockout (rack1ab) as a negative control on the blot (triple mutant is lethal at the early seedling stage). The large subunit of the abundant leaf protein rubisco (RbcL) was used as loading control for this blot. As the results support the in-silico based prediction, we set out to investigate the effect of the compounds on the mammalian RACK1 based virus proliferation.

A further test has as its system IRES (β-Globin). As to the kind of experiment: Dual-luciferase reporter assay, β-Globin control construct. It counts as cell-based. The method, then: Dual-luciferase reporter constructs were generously provided from (Plank et al., 2013) and (Carvajal et al., 2016). In the plasmid constructs, renilla luciferase (Rluc) translation is cap-dependent, while the firefly luciferase (Flue) translation depends on HIV-1 IRES. The Fluc/Rluc ratio was measured in the presence or the absence of the compounds in HEK293T cells transfected with the dual-luciferase plasmid bearing either Beta-globin, HCV, HIV-1 gag, EMVC or HIV-1 ladder sequences. Cells get transfected with the plasmids using Lipofectamine 3000 Reagent, from Thermo Fisher Scientific. Then treated with RACK1 inhibitors and its analogs (SD-29, and SD-29-14) at different concentrations; 1 μM, 10 μM, and […]. Moreover, the cells were treated with Dimethyl sulfoxide (DMSO) as a vehicle control or left untreated. Luc-Pair™ Duo-Luciferase Assay Kit 2.0 Kit (Genecopoeia) was used to measure the luciferase activity. HEK293T cells were grown to reach no more than 90% confluent at the desired time of lysate preparation.
For measuring Fluc/Rluc ratio and bioluminescence, Both Renilla and Firefly substrates were added to the same wells containing respective plasmid constructs. After the described incubation period, luciferase activity was evaluated from bioluminescence images acquired by a Perkin Elmer IVIS Spectrum Imaging system immediately after adding luciferase substrates. The Spectral Un-mixing options integrated in the software was used to un-mix the respective luminescence from Renilla and Firefly. Bioluminescence intensity in each well was quantified in units of photons per second per centimeter squared per steradian (p/s/cm^2/sr) by drawing a polygonal region of interest over the signals in images using Living Image 3.0 software (Caliper Life Sciences).
Dual-luciferase reporter constructs were used to determine if the drugs targeting RACK1 affect IRES-mediated translation. Renilla luciferase (Rluc) translation dependent on cap and the firefly luciferase (Fluc) translation dependent on HIV-1 IRES were utilized. The Fluc/Rluc ratio was measured in the presence or the absence of the compounds in the HEK293T cells transfected with the dual-luciferase plasmid bearing the predicted IRES from HIV-1 driving a firefly luciferase reporter gene and a cap dependent renilla luciferase from the same construct. As a control, HCV IRES is used within the dual luciferase construct (instead of HIV-1) as a positive control as HCV is known to use IRES solely for translating its transcripts, while Beta-globin plasmid was used as a negative control. The dual-luciferase reporters, as used here, are previously reported where HIV-1 IRES were reported (Plank, T. D., J. T. Whitehurst, and J. S. Kieft, Cell type specificity and structural determinants of IRES activity from the 5′ leaders of different HIV-1 transcripts. Nucleic Acids Res, 2013. 41(13): p. 6698-714; Carvajal, F., et al., Structural domains within the HIV-1 mRNA and the ribosomal protein S25 influence cap-independent translation initiation. FEBS J, 2016. 283(13): p. 2508-27.) The cells were transfected with the plasmids using Lipofectamine, then treated with RACK1 inhibitors (SD-29 and SD29-14) at different concentrations (1, 10, and 50 μM). Control cells were treated with DMSO or left untreated. SV40 promoter produces a capped and poly-adenylated dicistronic message. Translation of the upstream cistron (renilla luciferase, RLUC) is cap dependent, whereas translation of the downstream cistron (firefly luciferase, FLUC) occurs cap independently. The dual luciferase constructs are depicted in FIG. 1A. IRES activity is measured by calculating the ratio of FLUC to RLUC light production (RLUs) (Plank et al., 2013).
On the technique in general: A reporter such as luciferase makes a cellular process visible.

With `Nn1c(S)nnc1-c1ccc(F)cc1` [SD-29], in the test with RACK1A protein, the “RACK1 protein expression under salt stress” value was “inhibited RACK1 protein expression”. For the same compound, in the test on IRES (β-Globin) (1 μM), the FLUC is given as 4.02E+04 p/s/cm^2/sr, the “FLUC/RLUC Ratio” value is recorded as 0.068 ± 0.002 and the RLUC was found to be 5.82E+05 p/s/cm^2/sr. Also, in the test on IRES (β-Globin) (10 μM), the FLUC is recorded as 3.52E+04 p/s/cm^2/sr, the “FLUC/RLUC Ratio” value was found to be 0.074 ± 0.006 and the RLUC stood at 4.70E+05 p/s/cm^2/sr. In the test on IRES (β-Globin) (50 μM), the FLUC is listed as 3.74E+04 p/s/cm^2/sr, the “FLUC/RLUC Ratio” value worked out at 0.093 ± 0.004 and the RLUC is 4.01E+05 p/s/cm^2/sr.

Regarding `Nn1c(S)nnc1-c1cc(Cl)cc(Cl)c1` [SD29-14], the figures for the FLUC in the test with IRES (β-Globin) (1 μM), in the test on IRES (β-Globin) (10 μM) and in the test with IRES (β-Globin) (50 μM) were 2.21E+04 p/s/cm^2/sr, 2.72E+04 p/s/cm^2/sr and 1.74E+04 p/s/cm^2/sr, respectively. The “FLUC/RLUC Ratio” value with IRES (β-Globin) (1 μM) was found to be 0.067 ± 0.002; in the test with IRES (β-Globin) (10 μM) it was 0.062 ± 0.003; in the test with IRES (β-Globin) (50 μM), 0.067 ± 0.004. The RLUC amounted to 4.39E+05 p/s/cm^2/sr in the test with IRES (β-Globin) (10 μM) and 2.62E+05 p/s/cm^2/sr in the test on IRES (β-Globin) (50 μM).
